Results published in paper PMC12040169 (PLOS Biology, 2025).

Test: in vitro
Conditions: human, hela cells, % viability

Compound	viability at 28.5 h, 10 µM [%]	viability at 28.5 h, 10 µM (bulk resorufin, single well) [%]
Cc1ccccc1Nc1nc(N)nc(CN2CCOC3CCCC32)n1 (stereo not shown) [CBK305181]	97.6	
CCn1c(=O)n(CC(=O)NCc2cccs2)c2cccnc21 [CBK283811]	88.3	
Cc1ccc(Nc2nc(N)nc(CSc3nccn3C)n2)cc1 [CBK266468]	113	
CCC(C)(C)c1ccc(S(=O)(=O)N2CCCN(Cc3c[nH]c(=O)[nH]c3=O)CC2)cc1 [CBK062881]	91.8	
O=C1CCC(=O)N1CCN1CC(O)CC1c1cc(F)ccc1F (stereo not shown) [CBK306390]	92.8	
Cc1nc(-c2cccnc2)[nH]c(=O)c1CC(=O)N1CCN(C)CC1C (stereo not shown) [CBK304950]	100	
CCC(CC)C(=O)Nc1nc(OC)cnc1-c1cccc(C(=O)N(C)C)c1 [CBK145392]	98.5	
O=C(O)c1cc(NC(=O)c2ccc(NC(=O)c3ccco3)cc2)cc(C(=O)O)c1 [CBK265149]	111	
O=C(NC1CCCCC1)N[C@H]1CO[C@H]2[C@@H]1OC[C@@H]2Nc1nccc(C2CCCC2)n1 [CBK289531]	82.7	
CN1CC2(CCCN(Cc3noc(-c4ccccc4)n3)C2)OC1=O (stereo not shown) [CBK306952]	93	
Cc1c(CN(Cc2ccc(F)cc2)CC2CCCO2)cnn1C (stereo not shown) [CBK282589]	86	
Cc1ccc(S(=O)(=O)n2c(SCc3ccccc3)nc3ccccc32)cc1 [CBK293933]	104	
O=C(NCCNc1cnccn1)c1cc(F)cc(Br)c1 [CBK304554]	99.6	
CCOC(=O)N1CCC2(CC1)Oc1ccc(-c3ccccc3)cc1O2 [CBK085500]		101
C=C1C2(C(=O)NCCn3nc(C)c(Cl)c3C)CCC(C2)C1(C)C (stereo not shown) [CBK281661]	81.5	
COc1ccc(C(=O)NCc2ccc(S(N)(=O)=O)cc2)cc1[N+](=O)[O-] [CBK263629]	105	
O=C(NCc1c(OC(=O)c2cccc([N+](=O)[O-])c2)ccc2ccccc12)c1ccccc1 [CBK260919]	81.1	
O=C(/C=C/c1ccc2c(c1)OCO2)N1CCN(c2ncccn2)CC1 [CBK144501]	89.5	
COc1ccc(OCc2ncc(C(C)(C)C)o2)c(C(C)=O)c1 [CBK305079]	115	
O=c1[nH]c2ncc(-c3cccc4ccccc34)nc2n1Cc1cccnc1 [CBK064274]	102	
Cc1cc(C)n(C2CCN(Cc3c(C)nc4ccccn34)CC2)n1 [CBK281614]	83.4	
CSc1nsc(SCC(=O)N2CCN(C(c3ccccc3)c3ccccc3)CC2)n1 [CBK268071]	89.2	

Compound	viability at 28.5 h, 10 µM [%]	viability at 28.5 h, 10 µM (bulk resorufin, single well) [%]
CCOC(=O)c1ccc(NC(=O)C(C)Sc2nc3ccccc3[nH]2)cc1 (stereo not shown) [CBK267330]	91.8	
COc1ccccc1C(=O)N1CCC(C(=O)N(C)C(c2ccccc2)c2ncccc2C)CC1 (stereo not shown) [CBK060531]	75.4	
CCOC(=O)C1CCCN(Cc2c[nH]nc2-c2ccc(OC)cc2F)C1 (stereo not shown) [CBK307304]	91.1	
CNC(=O)C1(Cc2ccc(-c3cccc(C)c3)cc2)CCN(C(=O)CC(C)C)CC1 [CBK285787]	116	
CC(O)CNCCCOc1ccccc1-c1ccccc1 (stereo not shown) [CBK268633G]	97.6	
C[C@H](c1ccccc1)n1c(=O)[nH]c2ncc(-c3ccc(C(=O)N4CCN(C)CC4)cc3)nc21 [CBK064559]	101	
Cc1ccc(CN2C[C@H]3C(=O)Nc4ccccc4C(=O)N[C@@]3(C)C2)o1 [CBK284706]	95.7	
CN(c1ccccc1)S(=O)(=O)c1cccc(NC(=O)c2ccc(=O)[nH]n2)c1 [CBK297091]	96.3	
Cc1ccc(-c2nccnc2OCCN2C(=O)c3ccccc3C2=O)c(C)c1 [CBK106981]	90	
Cc1cccc2c3c([nH]c12)C1(CCCN(C/C=C\c2ccccc2)C1)N(C=O)CC3 (stereo not shown) [CBK040265]	92.4	
O=C(N[C@H]1CO[C@H]2[C@@H]1OC[C@@H]2n1nnnc1Oc1ccc(-n2ccnc2)cc1)c1ccco1 [CBK289486]	91.9	
CN(Cc1ccc(CN2CCOC(c3ccccc3)C2)o1)S(C)(=O)=O (stereo not shown) [CBK306808]	88.2	
CCc1nn(CC(=O)N2CCCC2)c(=O)c2cc3sccc3n12 [CBK284028]	85.8	
COc1ccc(C(=S)NCCCCCC(=O)O)cc1 [CBK288523]	87.1	
COC(=O)Nc1nc2cc(F)c(Cl)cc2[nH]1 [CBK026927]	102	
O=C(O)c1cccc(NS(=O)(=O)c2c(Cl)cc(C(F)(F)F)cc2Cl)c1 [CBK155721]	96.3	
CCCOC1CCCN(Cc2c(C)n(CC(N)=O)c3ccccc23)C1 (stereo not shown) [CBK282797]	99.2	
Cc1cc(NC(=O)C2CCN(C)CC2)c2ccccc2n1 [CBK122730]	91.1	
O=C(CSCc1ccc(C(=O)O)cc1)Nc1ccc2ccccc2c1 [CBK299833]	76.1	
Cc1ccc(S(=O)(=O)NC(C)(C)C)cc1C(=O)N(C)Cc1cnn(C)c1 [CBK305433]	86.9	
COc1ccc([N+](=O)[O-])cc1CSc1nnc(COc2ccccc2C)n1C [CBK265820]	93	
Cc1cccc(C(=O)Nc2ccc(C(=O)NNC(=O)C(C)(C)C)cc2)c1 [CBK269073]	111	

Compound	viability at 28.5 h, 10 µM [%]	viability at 28.5 h, 10 µM (bulk resorufin, single well) [%]
O=C(Oc1cccc2cccnc12)c1cc(S(=O)(=O)N2CCOCC2)ccc1Cl [CBK263210]	91.3	
CC(C)(C)c1cc(CN)c(C(=O)O)o1 [CBK266510C]	94.3	
CCOCCCNC(=O)c1ccc(-c2cc(Oc3ccc(OC)cc3)ncn2)cc1 [CBK291209]	100	
Cc1cccc(NC(=O)CSCc2ccc(Cl)s2)n1 [CBK297895]	90.4	
COCCNC(=O)N1CCN(CCc2ccccc2)CC1 [CBK158909]	97.3	
Cc1nc(S(=O)(=O)CC2CCCO2)n(CC(C)C)c1C (stereo not shown) [CBK304882]	116	
CC(C)OC(=O)CSc1nnc(-c2cnccn2)n1Cc1ccco1 [CBK267586]	117	
CCc1c(C)nc2ccccc2c1[S+]([O-])CCC(=O)OC (stereo not shown) [CBK155467T]	91.8	
COc1cccc(N2CCN(CC(=O)N3CCC(C(N)=O)CC3)CC2)c1 [CBK202881]	106	
CN1CC[C@H](c2ccccc2)[C@@H]2[C@H]1CCCCN2C(=O)c1ccc(=O)oc1 [CBK285527]	93.2	
N#Cc1ccc(C(=O)Nc2ccc3n(c2=O)C[C@H]2C[C@@H]3CN(C(=O)c3ccccc3)C2)cc1 [CBK289073]	109	
Cc1oc(-c2ccccc2)cc1C(=O)Nc1c(F)cc(F)cc1OC1CCNCC1 [CBK050326T]	89.8	
O=C(C1CN(Cc2nc3ccsc3c(=O)[nH]2)c2ccccc2O1)N1CCOCC1 (stereo not shown) [CBK295189]	109	
O=S(=O)(NCCCN1CCOCC1)c1cc(C(F)(F)F)cc(C(F)(F)F)c1 [CBK005796]	91	
CC(=O)NCCc1nc2cc(NC(=O)Nc3ccccc3)ccc2n1C [CBK268216]	103	
CCOC(=O)C1CCCN(Cc2ccc(OC)cc2)C1 (stereo not shown) [CBK304413]	88.3	
CC(C)C(=O)N1CCC(c2nc3ccc(F)cc3cc2N)CC1 [CBK284656]	81.5	
O=C(O)c1ccc(-c2cnc3ccccc3n2)cc1 [CBK288010]	106	
Cn1cc2c(n1)CC1CCC2N1C(=O)c1ccc(F)c(F)c1 (stereo not shown) [CBK281691]	92.6	
COc1ccc2[nH]cc(CC3CCNCC3)c2c1 [CBK012779]	104	
O=C(Nc1ccccc1C(F)(F)F)NC1CC2CCCC(C1)N2C1CC1 (stereo not shown) [CBK143578]	103	
COc1ccccc1C(NC(=O)N(C(C)C)C(C)C)c1nccn1C (stereo not shown) [CBK283834]	81.9	

Compound	viability at 28.5 h, 10 µM [%]	viability at 28.5 h, 10 µM (bulk resorufin, single well) [%]
O=C1CC(c2nc3ccccc3n2CCc2ccccc2)CN1c1ccccc1 (stereo not shown) [CBK266311]	101	
CCCC1CN(C)c2ccccc2C1=O (stereo not shown) [CBK023527]	87	
CC(C)CCC(=O)Nc1ccc(N2CCN(C(=O)c3ccccc3C(F)(F)F)CC2)nn1 [CBK138629]	100	
O=C(NCCn1nc2c(cc1=O)CCCCC2)c1cccs1 [CBK283277]	100	
Cc1cc(C)nc(N2CCC(CC(=O)N3CCCCC3CN3CCCC3)CC2)n1 (stereo not shown) [CBK286254]	95.6	
O=C(NCc1cccnc1)c1ncoc1-c1cccc(Cl)c1 [CBK282403]	85.4	
COc1ccc(CCN2C(=O)CC(C(=O)O)S/C2=N\c2ccccc2)cc1 (stereo not shown) [CBK286606]	90.6	
O=C1NCCNC(=O)C2(C/C=C/COc3ccccc31)CCN(C(=O)CCN1CCCCC1)CC2 [CBK292026]	110	
C=CCn1c(C)c(C)n2c3c(=O)n(CCN4CCOCC4)c(=O)n(C)c3nc12 [CBK269778]	90.8	
CC(C)C1OC(NCCN2CCOCC2)=NC1=O (stereo not shown) [CBK074097T]	91	
COCC1(C)NC(=O)N(Cc2nn(-c3ccccc3)c3c2CCC3)C1=O (stereo not shown) [CBK306483]	88.8	
O=C1CC(c2ccc(F)cc2)Cc2[nH]c(=O)c(C(=O)O)cc21 (stereo not shown) [CBK287200]	88.8	
Cc1nnc(CN2CCOc3ccc(Br)cc3C2)o1 [CBK304079]	99	
O=C(CC1SC(N2CCOCC2)=NC1=O)Nc1cccc(C(=O)O)c1 (stereo not shown) [CBK300498]	101	
Cc1nccn1CC1(O)CCN(C(=O)Cc2cccc(F)c2)CC1 [CBK282184]	109	
CC(=O)O/C(N)=N/c1nonc1N [CBK021885]	105	
Cc1cc(C(F)(F)F)nn1CCCNC(=O)c1cc(-c2ccccc2)nc2ccccc12 [CBK267755]	85	
Cc1noc(C)c1NC(=O)c1ccno1 [CBK200394]	87	
Cc1ccc(-c2csc3ncnc(NCCCc4n[nH]c(N)c4C#N)c23)cc1 [CBK297100]	98.1	
COc1ccc(OC)c2sc(NC(=O)c3ccc(Br)s3)nc12 [CBK287400]	93.7	
O=C(CSCCO)Nc1cccc2ccccc12 [CBK265623]	85.4	
O=C(NCc1nnc(-c2cccs2)o1)C(c1ccccc1)c1ccccc1 [CBK286294]	92.6	
